Measurements: ChEMBL document CHEMBL1128291, “The C-32 triacetyl-L-rhamnose derivative of ascomycin: a potent, orally active macrolactone immunosuppressant” (J Med Chem, 1995)

Columns and labels:
[1] = Therapeutic index is the plasma Cmax ratio of the minimum neurotoxic dose over the ED50 dose in rat adjuvant arthritis; conditions: read-out: TI
Rattus norvegicus [2] = experiment: In vivo immunosuppressive activity was evaluated by inducing arthritis in lewis rats and measuring the secondary lesions after 16 days; format: functional; conditions: 384 h
[3] = Drug plasma level in rat was determined on the last day of dosing at 1,2,4.8 and 24 hr and ED50 was evaluated; format: ADME, organism-based
Rattus norvegicus [4] = species: Rattus norvegicus; experiment: Minimum neurotoxic dose/Cmax was determined from ED50(rat adjuvant arthritis); format: functional
Rattus norvegicus [5] = species: Rattus norvegicus; experiment: Minimum neurotoxic dose from ED50(rat adjuvant arthritis); format: functional
Rattus norvegicus [6] = experiment: In vivo immunosuppressive activity was evaluated by surgically implanting the hearts from Brown Norway rats into the peritoneal cavity of histoincompatible Lewis rats and rejection was assessed; format: functional
Rattus norvegicus [7] = experiment: In vivo immunosuppressive activity was evaluated by inducing arthritis in lewis rats and measuring the primary lesions after 16 days; format: functional; conditions: 384 h
T-cell [8] = experiment: In vitro inhibitory activity against human T-cell proliferation.; format: functional, cell-based
T-cell [9] = experiment: In vitro inhibitory activity against human T-cell production of lymphokine IL-2; format: functional, cell-based
[10] = Therapeutic index was determined from the ratio of MND to the ED50 Cmax.(rat adjuvant arthritis)

Compound	selectivity ratio [1]	ED50 (Rattus norvegicus [2]) [mg/kg]	Cmax [3] [ng/mL]	MND Cmax (Rattus norvegicus [4]) [ng/mL]	MND (Rattus norvegicus [5]) [mg/kg]	ED100 (Rattus norvegicus [6]) [mg/kg]	ED50 (Rattus norvegicus [7]) [mg/kg]	IC50 (T-cell [8]) [nM]	IC50 (T-cell [9]) [nM]	Therapeutic index [10]
CC[C@@H]1/C=C(\C)C[C@H](C)C[C@H](OC)[C@H]2O[C@@](O)(C(=O)C(=O)N3CCCC[C@H]3C(=O)O[C@H](/C(C)=C/[C@@H]3CC[C@@H](OC4OC(C)C(OC(C)=O)C(OC(C)=O)C4OC(C)=O)[C@H](OC)C3)[C@H](C)[C@@H](O)CC1=O)[C@H](C)C[C@@H]2OC (stereo partly drawn)	> 10	2.3	254	> 2910	> 300	30	10	10.4	11	> 10
C/C=C/C[C@@H](C)[C@@H](O)[C@H]1C(=O)N[C@@H](CC)C(=O)N(C)CC(=O)N(C)[C@@H](CC(C)C)C(=O)N[C@@H](C(C)C)C(=O)N(C)[C@@H](CC(C)C)C(=O)N[C@@H](C)C(=O)N[C@H](C)C(=O)N(C)[C@@H](CC(C)C)C(=O)N(C)[C@@H](CC(C)C)C(=O)N(C)[C@@H](C(C)C)C(=O)N1C [CYCLOSPORINE]	–	0.7	–	–	–	15	3.4	–	–	–
C=CC[C@@H]1/C=C(\C)C[C@H](C)C[C@H](OC)[C@H]2O[C@@](O)(C(=O)C(=O)N3CCCC[C@H]3C(=O)O[C@H](/C(C)=C/[C@@H]3CC[C@@H](O)[C@H](OC)C3)[C@H](C)[C@@H](O)CC1=O)[C@H](C)C[C@@H]2OC [TACROLIMUS ANHYDROUS]	~2	0.6	24	52	12	3	1.9	0.5	0.9	2
